Reference: patent US20050137251A1, “Dexanabinol and dexanabinol analogs regulate inflammation related genes” (priority 2002, published 2005)

How the values were obtained:
COX-2 gene expression [1] = assay: COX-2 gene expression in LPS stimulated RAW 264.7 cells, real-time RT-PCR; type: cell-based, mouse; details: 10 μM, 2.5 hrs after LPS activation
Procedure: RAW 264.7 macrophages, a mouse cell line (ATCC # TIB 71), were grown in Dulbecco's modified Eagle's medium (DMEM) with 4 mM L-glutamine adjusted to contain 1.5 g/L sodium bicarbonate, 4.5 g/L glucose, and 10% heat inactivated fetal bovine serum. Cells were grown in tissue culture flasks and seeded at appropriate density into 24 wells tissue culture plates. 0.5×10^6 Raw cells in one milliliter were stimulated with 2 μg/ml Lipopolysaccharide E. coli 055:B5 (DIFCO Laboratories). The mouse macrophages were pre-treated for one hour with controls or 10 μM of dexanabinol and its analogs, unless indicated otherwise, and later on activated with LPS.
The results of this experiment are expressed as fold activation of COX-2 over non-activated macrophages, after normalization to cyclophilin A expression. When cells are treated with vehicle only we observe a maximal 6-fold increase in COX-2 expression. A decrease of 67% in RNA levels of COX-2 is observed when the activation is carried out in presence of 10 μM dexanabinol.
To test if COX-2 is the sole gene whose transcription is affected by compounds of the invention, additional genes were further analyzed by real-time RT-PCR in the above-described model of activated macrophages. This part of the study was performed with PRS-211,092 at doses up to 20 μM.

COX-2 gene expression [2] = assay: COX-2 gene expression in LPS i.c.v. injected mice brains; type: in vivo; details: 20 mg/kg i.p., whole brain 6 hours after 100 ng LPS i.c.v.
[3] = system: carrageenan induced paw edema; assay: Carrageenan induced paw edema; type: in vivo, mice; details: doses ranging from 0.2 to 0.5 mg/kg i.p., 3 hours after carrageenan
[4] = system: TH-immunoreactive cells at the SNpc (MPTP-induced dopaminergic toxicity); assay: MPTP short-term model: TH immunoreactive cells at the SNpc; type: in vivo, mice
Procedure: The mice (C57/BL male mice, average weight 30 g, Harlan, Israel) were administered i.p. with 4 injections of MPTP (Sigma, USA) (20 mg/kg, 5 ml/kg) in saline (Teva Medical Israel) at 2 hours interval on day 1. The test compounds and vehicle control (cremophor:ethanol diluted in saline) were injected i.p. once just before the first MPTP administration at a volume dose of 5 ml/kg. Dexanabinol was tested at 10, 20, and 30 mg/kg and PRS-211,220 was tested at 0.5, 1, and 5 mg/kg. Each treatment group was composed of at least seven animals. Seven days following the MPTP treatment the animals are euthanized by i.p. administration of 100 mg/kg pentobarbitone sodium (CTS, Israel) and their brains are removed for tyrosine hydroxylase (TH) detection using immunohistochemistry.
Brains were fixed by immersion in 4% formaldehyde for at least 72 hours. The brains were then washed with PBS and transferred to 30% sucrose in PBS until they sank. […] Quantitative analysis was carried out by counting the number of TH-immunoreactive cells/mm^2 at the widest area of the SNpc.
Treatment of the animals with the test compounds results in a dose-dependent preservation of the TH-IR cells. Percent preservation is calculated by dividing the number of rescued cells (treatment-MPTP) by the maximal possible number of rescued cells (saline-MPTP). […]

[5] = system: MPTP model of neurodegeneration; assay: MPTP long-term model: rotarod functional outcome and mortality; type: in vivo, mice
Procedure: The mice (C57/BL male mice, average weight 30 g, Harlan, Israel) were administered i.p. with MPTP (Sigma, USA) (40 mg/kg, 5 ml/kg) in saline (Teva Medical, Israel) at 2 weeks interval for four times. The test compounds and controls were injected i.p. once just before the first MPTP administration at a volume dose of 5 ml/kg. Dexanabinol was tested at 20 mg/kg and PRS-211,220 was tested at 5 mg/kg. Each treatment group was composed of at least fourteen animals.
Seven days following each MPTP injection, the animals were submitted to a functional test using the rotarod apparatus as described by Rozas et al. (Rozas G. et al., J. of Neuroscience Methods 83: 165-75, 1998). The performance of the animals in the rotarod system, which measures overall locomotor ability, reflects their ability to achieve functions generally affected in PD. The animals were trained for 4 days before beginning the experiment. Their task was to stay on the accelerating rod without falling for 12 minutes (3 minutes at each speed). The tested speeds were: 15, 19, 23 and 27 rpm. Animal performance on the rod was scored as follows: each animal could obtain a maximum of 3 points (1 for each minute) for full walking on the rod at each speed. […]
Another parameter that was measured in this experiment is mortality, which was relatively high in this model.

IL-10 gene expression = IL-10 gene expression in MCAo mice brains; details: 5 mg/kg i.v., 18 hours of MCAo

In the case of `CCCCCCC(C)(C)c1cc(O)c2c(c1)OC(C)(C)[C@H]1CC=C(CO)C[C@H]21` [dexanabinol, 1,1-dimethylheptyl-(3S,4S)-7-hydroxy-Δ^6-tetrahydrocannabinol], the “Decrease in RNA levels of COX-2” value (COX-2 gene expression [1]) is reported as 67%, the “Reduction in the level of COX-2 activation” value (COX-2 gene expression [2]) is reported as 53% and the “Reduction in paw thickness” value [3] is reported as “about 29%”. The “Preservation of TH-IR cells” value ([4]; 20 mg/kg i.p., seven days after MPTP) was “about 25%”, the “Effect of increasing the dose on TH-IR cell preservation” value ([4]; 30 mg/kg vs 20 mg/kg) was “no significant effect” and the “Rotarod functional outcome vs vehicle” value ([5]; 20 mg/kg i.p., fourth session) was “positive trend”. For the same compound, the Mortality ([5]; 20 mg/kg, MPTP only 69%) was 11% and the “Further increase of IL-10 gene expression vs vehicle” value (IL-10 gene expression) was 4.4 fold.
